Experimental data from patent US20190091168A1, “FORMULATION FOR ENHANCED TRANSDERMAL ABSORPTION OF DRUG” (UNIST(ULSAN NATIONAL INSTITUTE OF SCIENCE AND TECHNOLOGY), priority 2017, published 2019).

Columns and labels:
Assay type in all cases: in vivo
[1] = system: dementia mouse model APP/PS/Tau; assay: Morris water maze test in dementia mouse model; details: for mean escape latency: 100 μg/kg twice a week for 2 months
Source text: (§1) APP/PS/Tau was purchased as a dementia mouse model from Jackson lab (BAR HARBOR, USA), and APP/Tau female and APP/PSen1de9 purchased from Taconic (Hudson, USA) were cross-mated for 6 generations, and 4-month-old mouse models were obtained from F1.
In order to examine therapeutic effects of the benzene diamine derivative of the present disclosure on dementia, enhancement of spatial cognition and memory in dementia mouse models were investigated. For this investigation, a Morris water maze (Harvard Apparatus, USA) test was performed.
In detail, a water maze composed of a stainless steel pool with a diameter of 150 cm×a height of 60 cm and an escape platform (10 cm in diameter, 30 cm in height) was filled with water at […], and the height was 2 cm above the platform such that when a mouse sat on the escape platform, the body was allowed to come out of the water. […] Escape latency was measured as the time taken for the experimental animal to go to the escape platform when the experimental animal went to the escape platform and stayed thereon for more than 20 seconds. This test was performed three times a day, and a mean value was determined as mean escape latency. The escape latency was recorded on the computer program (Smart Video Tracking System V3.0, PanLab SL, Barcelona, Spain) by installing a camera on the ceiling above the water tank. The experiment was performed three times a day for 6 days, and at this time, the possibility of accidentally visiting the escape platform was minimized by sequentially changing the positions of the experimental animals in the water tank. In the experiment, a normal mouse, a control dementia mouse administered with a vehicle (PBS) and an experimental dementia mouse administered with 100 μg/kg of N^1-(pyridin-2-ylmethyl)benzene-1,4-diamine (Compound 2) twice a week for 2 months were used after completing administration.

[2] = system: hair loss mouse model APP/PS/Tau; assay: Hair loss mouse model, oral administration, changes in appearance; details: 100 μg/Kg twice a week for 2 months
Source text: as §1
In order to examine therapeutic effects of the benzene diamine derivative of the present disclosure on hair loss, the benzene diamine derivative was orally administered to hair loss-induced mouse models, and changes in appearance were examined. The animal model of Experimental Example 2-1 was characterized by appearance of hair loss as well as dementia symptoms. Therefore, the animal model of Experimental Example 2-1 was used as a hair loss mouse model.
The hair loss mouse models were divided into groups of 6 mice, and among the hair loss mouse models, the control group were orally administered with a phosphate buffer vehicle (PBS) for 2 months, and the experimental group was orally administered with 100 μl of N1-(pyridin-2-ylmethyl)benzene-1,4-diamine (Compound 2) at a concentration of 100 μg/Kg twice a week for 2 months. Thereafter, changes in their appearance were compared.

[3] = system: SOX-2; assay: SOX-2 expression in skin tissue after oral administration (fluorescence imaging); details: 100 μg/Kg/0.1 ml twice a week, 2 months, APP/PS/Tau mouse
Procedure: (§2) Accordingly, the present inventors examined whether expressions of hair growth stimulating factors, SOX-2 and SOX-9 were increased in hair loss animal models by the benzene diamine derivatives of the present disclosure. In order to examine SOX-2 and SOX-9 expressions inside skin tissues, APP/PS/Tau mouse which is a hair loss-induced mouse model was selected as a control group and C57BL6 mouse was selected as a normal group, as in Example 5. An experimental group was prepared by orally administering the control group with the benzene diamine derivative at a concentration of 100 μg/Kg/0.1 ml using a zonde twice a week. 2 months later, incision of the skin was performed under local anesthesia, and the skin tissues were fixed in 4% paraformaldehyde solution for 24 hours, and fixed in a plastic mold with O.C.T. Compound (SAKURA, USA) for cryostat sectioning. […] Thereafter, the plate was put on a slide glass and covered with a cover slide, and stored in a dark acrylic box, and fluorescence imaging was observed under a confocal microscope (LSM710, Carl Zeiss, Germany) by 405/488/565 nm laser. […]

[4] = system: SOX-9; assay: SOX-9 expression in skin tissue after oral administration (fluorescence imaging); details: 100 μg/Kg/0.1 ml twice a week, 2 months, APP/PS/Tau mouse
Procedure: as §2

[5] = system: monomer/oligomer Aβ; assay: Monomer/oligomer Aβ expression in skin tissue after oral administration (fluorescence imaging); details: 100 μg/Kg/0.1 ml twice a week, 2 months, APP/PS/Tau mouse

With “N^1-(pyridin-2-ylmethyl)benzene-1,4-diamine [Compound 2]” the mean escape latency ([1]; at 3 days, compared with dementia control group) was “significantly short mean escape latency”, the “difference of mean escape latency, control group vs experimental group” value ([1]; at 4 days) was 16 s and the mean escape latency ([1]; at 4 days) was 26 ± 1 s. For the same substance, the “difference of mean escape latency, dementia group vs treated group” value ([1]; at 5 days) was 19 s, the mean escape latency ([1]; at 5 days) was 24 ± 1 s and the “changes in appearance (hair loss)” value [2] was “remarkable improvement in hair loss”. The “SOX-2 expression in skin” value [3] was “remarkably expressed close to the normal group”, the “SOX-9 expression in skin” value [4] was “remarkably increased” and the “monomer/oligomer Aβ expression in skin” value [5] was “decreased”.
